In brackets after ≈: the same amount, converted by molar mass. Values belong to the compound of their own block, whether it stands above or below them.
Assays:
[1] = Stability in human liver microsomes assessed as compound remaining preincubated for 10 mins followed by phosphate buffer addition and incubated for 1 hr and subsequent addition of NADPH regenerating system and measured after 60 mins by LC-MS/MS analysis; type: ADME, Microsome; details: time 190 min, read-out: Stability
[2] = Half life in human liver microsomes preincubated for 10 mins followed by phosphate buffer addition and incubated for 1 hr and subsequent addition of NADPH regenerating system and measured after 2 hrs by LC-MS/MS analysis
in vitro [3] = details: human, liver microsomes
[4] = system: Human immunodeficiency virus 1; test: Antiviral activity against HIV1 harboring F227L/V106A mutant infected in human MT4 cells assessed as reduction in virus-induced cytopathogenic effect by MTT assay; type: functional, organism-based; details: Human immunodeficiency virus 1, MT4
[5] = system: Human immunodeficiency virus 2; test: Antiviral activity against wild type HIV2 ROD infected in human MT4 cells assessed as reduction in virus-induced cytopathogenic effect by MTT assay; details: Human immunodeficiency virus 2, ROD
[6] = system: Human immunodeficiency virus 1; details: Human immunodeficiency virus 1, MT4
[7] = Cytotoxicity against human MT4 cells assessed as reduction in cell viability by MTT assay
[8] = Selectivity ratio of CC50 for human MT4 cells to IC50 for HIV1 RES056 infected in MT4 cells
[9] = system: Human immunodeficiency virus 1; test: Antiviral activity against wild type HIV1 harboring Y181C mutant infected in human MT4 cells assessed as reduction in virus-induced cytopathogenic effect by MTT assay; details: Human immunodeficiency virus 1, MT4
[10] = system: Human immunodeficiency virus 1; test: Antiviral activity against HIV1 harboring L100I mutant infected in human MT4 cells assessed as reduction in virus-induced cytopathogenic effect by MTT assay; details: Human immunodeficiency virus 1, MT4
[11] = system: Human immunodeficiency virus 1; test: Antiviral activity against HIV1 RES056 infected in human MT4 cells assessed as reduction in virus-induced cytopathogenic effect by MTT assay; details: Human immunodeficiency virus 1, RES056, MT4
[12] = system: Human immunodeficiency virus 1; test: Antiviral activity against HIV1 3B infected in human MT4 cells assessed as reduction in virus-induced cytopathogenic effect by MTT assay; details: Human immunodeficiency virus 1, 3B
[13] = system: Human immunodeficiency virus 1; test: Antiviral activity against HIV1 harboring K103N mutant infected in human MT4 cells assessed as reduction in virus-induced cytopathogenic effect by MTT assay; type: functional, organism-based; details: Human immunodeficiency virus 1, MT4
[14] = system: Human immunodeficiency virus 1; test: Antiviral activity against wild type HIV1 harboring Y188L mutant infected in human MT4 cells assessed as reduction in virus-induced cytopathogenic effect by MTT assay; details: Human immunodeficiency virus 1, MT4
[15] = biological target: Human immunodeficiency virus type 1 reverse transcriptase (Human immunodeficiency virus 1, UniProt Q72547); test: Inhibition of wild type HIV1 reverse transcriptase assessed as reduction in biotin-dUTP incorporation into […] incubated for 1 hrs by ELISA
in vitro [16] = details: human, MT4 cells
Description: Selectivity index, ratio of CC50 for human MT4 cells to EC50 for HIV1 harboring E138K mutant infected in human MT4 cells

[17] = Acute toxicity in Kunming mouse assessed as effect on body weight at 1000 mg/kg, ig measured every day for 7 days; type: organism-based; details: in vivo, po, 168 h, time 7 day
[18] = AUC(0 to last) in Sprague-Dawley rat at 2 mg/kg, iv measured after 5 to 600 mins by LC-MS/MS analysis; type: ADME, organism-based; design: route intravenous, dose 2 mg/kg, time upper 600 min, time lower 5 min; details: in vivo
[19] = Clearance in Sprague-Dawley rat at 2 mg/kg, iv measured after 5 to 600 mins by LC-MS/MS analysis; type: ADME, organism-based; details: in vivo, time 5-600 min
[20] = Cmax in Sprague-Dawley rat at 2 mg/kg, iv measured after 5 to 600 mins by LC-MS/MS analysis; type: ADME, organism-based; design: route intravenous, time lower 5 min, dose 2 mg/kg, time upper 600 min; details: in vivo
[21] = Acute toxicity in Kunming mouse assessed as induction of poisoning at 1000 mg/kg, ig measured every day for 7 days; type: organism-based; details: in vivo, po, 168 h, time 7 day
[22] = Acute toxicity in ig dosed Kunming mouse measured every day for 7 days; type: organism-based; details: in vivo, po, time 7 day
[23] = Acute toxicity in Kunming mouse assessed as effect on growth at 1000 mg/kg, ig measured every day for 7 days; type: organism-based; details: in vivo, po, 168 h, time 7 day
[24] = AUC (0 to infinity) in Sprague-Dawley rat at 20 mg/kg, po measured after 15 to 720 mins by LC-MS/MS analysis; type: ADME, organism-based; design: route oral, time lower 15 min, dose 20 mg/kg, time upper 720 min; details: in vivo
[25] = AUC(0 to infinity) in Sprague-Dawley rat at 2 mg/kg, iv measured after 5 to 600 mins by LC-MS/MS analysis; type: ADME, organism-based; design: route intravenous, time 5-600 min, dose 2 mg/kg; details: in vivo
[26] = Cmax in Sprague-Dawley rat at 20 mg/kg, po measured after 15 to 720 mins by LC-MS/MS analysis; type: ADME, organism-based; design: route oral, dose 20 mg/kg, time 15-720 min; details: in vivo
[27] = MRT (0 to infinity) in Sprague-Dawley rat at 20 mg/kg, po measured after 15 to 720 mins by LC-MS/MS analysis; type: ADME, organism-based; details: in vivo, time 15-720 min
[28] = Half life in Sprague-Dawley rat at 20 mg/kg, po measured after 15 to 720 mins by LC-MS/MS analysis; type: ADME, organism-based; details: in vivo, time 15-720 min
[29] = Acute toxicity in Kunming mouse assessed as mortality at 1000 mg/kg, ig measured every day for 7 days; type: organism-based; details: in vivo, po, 168 h, time 7 day
[30] = Tmax in Sprague-Dawley rat at 2 mg/kg, iv measured after 5 to 600 mins by LC-MS/MS analysis; type: ADME, organism-based; details: in vivo, time 5-600 min
[31] = MRT (0 to infinity) in Sprague-Dawley rat at 2 mg/kg, iv measured after 5 to 600 mins by LC-MS/MS analysis; type: ADME, organism-based; details: in vivo, time 5-600 min
[32] = Half life in Sprague-Dawley rat at 2 mg/kg, iv measured after 5 to 600 mins by LC-MS/MS analysis; type: ADME, organism-based; details: in vivo, time 5-600 min
[33] = Volume of distribution in Sprague-Dawley rat at 2 mg/kg, iv measured after 5 to 600 mins by LC-MS/MS analysis; type: ADME, organism-based; details: in vivo, time 5-600 min
[34] = Tmax in Sprague-Dawley rat at 20 mg/kg, po measured after 15 to 720 mins by LC-MS/MS analysis; type: ADME, organism-based; details: in vivo, time 15-720 min
[35] = AUC (0 to last) in Sprague-Dawley rat at 20 mg/kg, po measured after 15 to 720 mins by LC-MS/MS analysis; type: ADME, organism-based; design: route oral, time lower 15 min, dose 20 mg/kg, time upper 720 min; details: in vivo
[36] = Solubility in phosphate buffer at pH7; details: pH 7

remaining at 1 h [1]: 0.2%
half-life at 2 h [2]: 1.6 min
microsomal CLint at 2 h (in vitro [3]): 847 µL/min/mg
Compound: Cc1cc(/C=C/C#N)cc(C)c1Oc1nc(NC2CCN(Cc3ccc(S(N)(=O)=O)cc3)CC2)nc2ccsc12

Compound: Cc1cc(/C=C/C#N)cc(C)c1Oc1nc(NC2CCN(Cc3ccc(C(N)=O)cc3)CC2)nc2c1CSCC2
EC50 [4]: 20 nM
EC50 [5]: > 18500 nM
EC50 [6]: 30 nM
CC50 [7]: 18500 nM
selectivity ratio [8]: 495
EC50 [9]: 31.1 nM
EC50 [10]: 8.65 nM
EC50 [11]: 37.3 nM
EC50 [12]: 15.5 nM
EC50 [13]: 12.5 nM
EC50 [14]: 35.2 nM
IC50 [15]: 179 nM
selectivity ratio (in vitro [16]): 615

Compound: Cc1cc(/C=C/C#N)cc(C)c1Oc1nc(Nc2ccc(C#N)nc2)nc2c1CSCC2
EC50 [4]: 148 nM
EC50 [5]: > 109000 nM
EC50 [6]: 12.8 nM
CC50 [7]: 109000 nM
selectivity ratio [8]: 1340
EC50 [9]: 13.3 nM
EC50 [10]: 9.08 nM
EC50 [11]: 81.6 nM
EC50 [12]: 12.1 nM
EC50 [13]: 4.09 nM
EC50 [14]: 59.6 nM
IC50 [15]: 32 nM
selectivity ratio (in vitro [16]): 8520

Compound: Cc1cc(/C=C/C#N)cc(C)c1Oc1nc(Nc2ccc(C#N)cc2)nc2c1CSCC2
Activity [17]: Non-Toxic
EC50 [4]: 42.9 nM
EC50 [5]: > 284000 nM
AUC(0-t) [18]: 1510 ng·h/mL
remaining at 1 h [1]: 0.3%
clearance [19]: 23 mL/min/kg
Cmax [20]: 8880 ng/mL
Activity [21]: Non-Toxic
EC50 [6]: 9.78 nM
CC50 [7]: 284000 nM
LD50 at 168 h [22]: > 1000 mg/kg
Activity [23]: Non-Toxic
AUC(0-inf) [24]: 24 ng·h/mL
AUC(0-inf) [25]: 1510 ng·h/mL
Cmax [26]: 16.6 ng/mL
EC50 [9]: 14.9 nM
EC50 [10]: 4.44 nM
half-life at 2 h [2]: 7.4 min
EC50 [11]: 47.8 nM
EC50 [12]: 9.67 nM
MRT inf [27]: 174 min
half-life [28]: 121 min
microsomal CLint at 2 h (in vitro [3]): 188 µL/min/mg
EC50 [13]: 4.44 nM
Activity [29]: Non-Toxic
Tmax [30]: 4.98 min
EC50 [14]: 54.5 nM
IC50 [15]: 81 nM
MRT inf [31]: 30 min
half-life [32]: 116 min
Vd [33]: 0.702 L/kg
Tmax [34]: 15 min
AUC(0-t) [35]: 19.5 ng·h/mL

Compound: Cc1cc(C#N)cc(C)c1Oc1nc(Nc2ccc(C#N)cc2)nc2c1CSCC2
EC50 [4]: 27.1 nM
EC50 [5]: > 202000 nM
EC50 [6]: 9.43 nM
CC50 [7]: 202000 nM
selectivity ratio [8]: 1360
EC50 [9]: 27.6 nM
EC50 [10]: 9.31 nM
EC50 [11]: 148 nM
EC50 [12]: 5.64 nM
EC50 [13]: < 3.87 nM
EC50 [14]: 24.3 nM
IC50 [15]: 41 nM
selectivity ratio (in vitro [16]): 21400

Compound: Cc1cc(/C=C/C#N)cc(C)c1Oc1nc(NC2CCN(Cc3ccc(S(N)(=O)=O)cc3)CC2)nc2c1CSCC2
EC50 [4]: 16.3 nM
EC50 [5]: 4050 nM
EC50 [6]: 40.7 nM
CC50 [7]: 15100 nM
selectivity ratio [8]: 272
EC50 [9]: 22.3 nM
EC50 [10]: 8.13 nM
EC50 [11]: 55.4 nM
EC50 [12]: 10.7 nM
EC50 [13]: 9.23 nM
EC50 [14]: 37.1 nM
IC50 [15]: 203 nM
selectivity ratio (in vitro [16]): 370

Compound: Cc1cc(C#N)cc(C)c1Oc1nc(NC2CCN(Cc3ccc(S(C)(=O)=O)cc3)CC2)nc2c1CSCC2
EC50 [4]: 17.1 nM
EC50 [5]: 5640 nM
EC50 [6]: 18.7 nM
CC50 [7]: 58000 nM
selectivity ratio [8]: 465
EC50 [9]: 20.8 nM
EC50 [10]: 11.6 nM
EC50 [11]: 125 nM
EC50 [12]: 11.1 nM
EC50 [13]: 6.65 nM
EC50 [14]: 18.4 nM
IC50 [15]: 134 nM
selectivity ratio (in vitro [16]): 3100

Compound: Cc1cc(C#N)cc(C)c1Oc1nc(NC2CCN(Cc3ccc(S(N)(=O)=O)cc3)CC2)nc2c1CSCC2
EC50 [4]: 15.1 nM
EC50 [5]: > 221000 nM
EC50 [6]: 15.9 nM
CC50 [7]: > 221000 nM
selectivity ratio [8]: > 1850
EC50 [9]: 7.44 nM
EC50 [10]: 7.88 nM
EC50 [11]: 120 nM
EC50 [12]: 13.7 nM
EC50 [13]: 7.17 nM
EC50 [14]: 12.6 nM
IC50 [15]: 151 nM
selectivity ratio (in vitro [16]): > 13900

Compound: Cc1cc(/C=C/C#N)cc(C)c1Oc1nc(Nc2ccc(C#N)c(F)c2)nc2c1CSCC2
EC50 [4]: 74.3 nM
EC50 [5]: > 54400 nM
EC50 [6]: 41.2 nM
CC50 [7]: 54400 nM
selectivity ratio [8]: 408
EC50 [9]: 32.7 nM
EC50 [10]: 8.41 nM
EC50 [11]: 133 nM
EC50 [12]: 15.8 nM
EC50 [13]: 15.8 nM
EC50 [14]: 54.3 nM
IC50 [15]: 8 nM
selectivity ratio (in vitro [16]): 1320

Compound: Cc1cc(C#N)cc(C)c1Oc1nc(NC2CCN(Cc3ccc(C(N)=O)cc3)CC2)nc2c1CSCC2
EC50 [4]: 853 nM
EC50 [5]: > 236000 nM
EC50 [6]: 32.9 nM
CC50 [7]: > 236000 nM
selectivity ratio [8]: > 1690
EC50 [9]: 21.4 nM
EC50 [10]: 22.3 nM
EC50 [11]: 140 nM
EC50 [12]: 9.98 nM
EC50 [13]: 8.8 nM
EC50 [14]: 22.8 nM
IC50 [15]: 143 nM
selectivity ratio (in vitro [16]): > 7180

Compound: Cc1cc(C#N)cc(C)c1Oc1nc(Nc2ccc(C#N)cc2)nc(N)c1Br [ETRAVIRINE]
EC50 [4]: 14.3 nM
EC50 [5]: > 4590 nM
EC50 [6]: 8.08 nM
CC50 [7]: > 4590 nM
EC50 [10]: 6.36 nM
solubility [36]: < 1000 ng/mL
EC50 [11]: 42.5 nM
EC50 [12]: 5.03 nM
EC50 [13]: 3.14 nM

solubility [36]: 2 ng/mL (≈ 5.46 nM)
Compound: Cc1cc(/C=C/C#N)cc(C)c1Nc1ccnc(Nc2ccc(C#N)cc2)n1 [RILPIVIRINE]

From ChEMBL document CHEMBL4831515 (J Med Chem, 2021)
